Measurements: patent publication US20040202647A1, “Compositions and methods related to nitrotyrosine - containing compounds as antigenic agents” (priority 2002, published 2004)
Read-outs that look alike come from different tables or passages of the source.

System: splenocytes from naïve C57BI/6 mice
Type: cell-based
Conditions: naïve splenocytes plus RMA-S pulsed with 10 uM peptide, IL-2 added after 4 days

KAVYNFATM [non-nitrated LCMV gp33 peptide]
outgrowth of CD8^+ T cells: not | outgrowth of CD8^+ T cells (listed as conventional gp33-41 peptide): not observed
